Assay results taken from patent US11639352B2, “Benzothiazole compounds for the treatment of autoimmune diseases” (Hoffmann-La Roche Inc., priority 2018, dated 2023).

These molecules were tested against T1, human TLR7 (Homo sapiens, UniProt Q9NYK1) (assay: HEK293-Blue-hTLR-7 cells assay (SEAP reporter, R848 stimulation)). Settings: HEK293-Blue-hTLR7 cells, R848 ligand, 20 hrs incubation, antagonist.
T1 sequence (Q9NYK1 27-1049): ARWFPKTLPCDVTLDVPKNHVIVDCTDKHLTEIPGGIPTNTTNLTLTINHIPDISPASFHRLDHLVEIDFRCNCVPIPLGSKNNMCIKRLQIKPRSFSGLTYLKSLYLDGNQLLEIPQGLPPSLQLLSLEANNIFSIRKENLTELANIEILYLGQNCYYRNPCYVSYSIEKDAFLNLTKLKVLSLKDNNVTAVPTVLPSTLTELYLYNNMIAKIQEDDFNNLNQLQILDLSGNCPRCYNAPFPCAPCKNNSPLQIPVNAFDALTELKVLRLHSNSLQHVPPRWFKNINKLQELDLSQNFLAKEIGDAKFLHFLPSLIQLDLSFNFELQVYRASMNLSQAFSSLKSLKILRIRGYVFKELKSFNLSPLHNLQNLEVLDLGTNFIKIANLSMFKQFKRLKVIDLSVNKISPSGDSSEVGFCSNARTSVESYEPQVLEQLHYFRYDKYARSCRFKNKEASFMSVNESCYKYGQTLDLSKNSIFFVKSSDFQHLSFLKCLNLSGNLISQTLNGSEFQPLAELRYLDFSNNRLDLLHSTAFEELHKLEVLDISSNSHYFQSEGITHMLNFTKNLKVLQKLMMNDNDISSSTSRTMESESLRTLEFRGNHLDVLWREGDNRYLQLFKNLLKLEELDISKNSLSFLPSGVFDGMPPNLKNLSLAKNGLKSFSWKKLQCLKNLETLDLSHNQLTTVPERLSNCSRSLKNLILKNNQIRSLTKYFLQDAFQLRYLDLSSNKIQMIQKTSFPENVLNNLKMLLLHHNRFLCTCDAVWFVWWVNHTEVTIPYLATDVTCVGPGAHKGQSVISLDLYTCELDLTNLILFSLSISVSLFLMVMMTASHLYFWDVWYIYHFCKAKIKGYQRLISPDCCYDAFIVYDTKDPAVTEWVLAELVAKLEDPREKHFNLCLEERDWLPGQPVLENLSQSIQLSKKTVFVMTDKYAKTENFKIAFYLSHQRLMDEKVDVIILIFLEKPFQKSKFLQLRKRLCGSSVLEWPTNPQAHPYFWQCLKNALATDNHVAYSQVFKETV
Type: cell-based
Method: The following tests were carried out in order to determine the activity of the compounds of formula (I) in HEK293-Blue-hTLR-7/8/9 cells assay.
HEK293-Blue-hTLR-7 Cells Assay:
A stable HEK293-Blue-hTLR-7 cell line was purchased from InvivoGen (Cat. #: hkb-htlr7, San Diego, Calif., USA). These cells were originally designed for studying the stimulation of human TLR7 by monitoring the activation of NF-κB. A SEAP (secreted embryonic alkaline phosphatase) reporter gene was placed under the control of the IFN-β minimal promoter fused to five NF-κB and AP-1-binding sites. The SEAP was induced by activating NF-κB and AP-1 via stimulating HEK-Blue hTLR7 cells with TLR7 ligands. Therefore the reporter expression was declined by TLR7 antagonist under the stimulation of a ligand, such as R848 (Resiquimod), for incubation of 20 hrs. The cell culture supernatant SEAP reporter activity was determined using QUANTI-Blue™ kit (Cat. #: rep-qb1, Invivogen, San Diego, Calif., USA) at a wavelength of 640 nm, a detection medium that turns purple or blue in the presence of alkaline phosphatase.
HEK293-Blue-hTLR7 cells were incubated at a density of 250,000˜450,000 cells/mL in a volume of 170 μL in a 96-well plate in Dulbecco's Modified Eagle's medium (DMEM) containing 4.5 g/L glucose, 50 U/mL penicillin, […], […], 2 mM L-glutamine, 10% (v/v) heat-inactivated fetal bovine serum with addition of 20 μL test compound in a serial dilution in the presence of final DMSO at 1% and 10 μL of 20 uM R848 in above DMEM, perform incubation under 37° C. in a CO2 incubator for 20 hrs. Then 20 μL of the supernatant from each well was incubated with 180 μL Quanti-blue substrate solution at 37° C. for 2 hrs and the absorbance was read at 620˜655 nm using a spectrophotometer. The signalling pathway that TLR7 activation leads to downstream NF-κB activation has been widely accepted, and therefore similar reporter assay was modified for evaluating TLR7 antagonist.
Work on `C[C@@H]1CN(c2ccc(C#N)c3ncsc23)C[C@H](CN2[C@@H]3CC[C@H]2C[C@H](N)C3)O1` [Example 9, Exo-7-[(2S,6R)-2-[[(1S,5R)-3-amino-8-azabicyclo[3.2.1]octan-8-yl]methyl]-6-methyl-morpholin-4-yl]-1,3-benzothiazole-4-carbonitrile] yielded an IC50 of 45 nM. With `C[C@@H]1CN(c2ccc(C#N)c3ncsc23)C[C@H](CN2[C@@H]3CC[C@H]2C[C@@H](N)C3)O1` [Example 8, Endo-7-[(2S,6R)-2-[[(1R,5S)-3-amino-8-azabicyclo[3.2.1]octan-8-yl]methyl]-6-methyl-morpholin-4-yl]-1,3-benzothiazole-4-carbonitrile] the IC50 was 16 nM. `C[C@@H]1CN(c2ccc(C#N)c3ncsc23)C[C@H](CN2CCC3(CCCN(C)C3)CC2)O1` [Example 10, 7-[(2R,6S)-2-methyl-6-[(2-methyl-2,9-diazaspiro[5.5]undecan-9-yl)methyl]morpholin-4-yl]-1,3-benzothiazole-4-carbonitrile] was tested, and the IC50 was 15 nM. For `C[C@@H]1CN(c2ccc(C#N)c3ncsc23)C[C@H](CN2CCC3(CCCNC3)CC2)O1` [Example 3, 7-[(2S,6R)-2-(2,9-diazaspiro[5.5]undecan-9-ylmethyl)-6-methyl-morpholin-4-yl]-1,3-benzothiazole-4-carbonitrile], the IC50 was 19 nM. `C[C@@H]1CN(c2ccc(C#N)c3ncsc23)C[C@H](CN2CCC3(CCNC3)CC2)O1` [Example 6, 7-[(2S,6R)-2-(2,8-diazaspiro[4.5]decan-8-ylmethyl)-6-methyl-morpholin-4-yl]-1,3-benzothiazole-4-carbonitrile] was tested, and the IC50 was 41 nM. In the case of `C[C@@H]1CN(c2ccc(C#N)c3ncsc23)C[C@H](C(=O)NC2CCN(C)CC2)O1` [Example 11, (2R,6R)-4-(4-cyano-1,3-benzothiazol-7-yl)-6-methyl-N-(1-methyl-4-piperidyl)morpholine-2-carboxamide], the IC50 is reported as 5 nM. In the case of `C[C@@H]1CN(c2ccc(C#N)c3ncsc23)C[C@H](CN2CCC(N3CCCCC3)CC2)O1` [Example 7, 7-[(2R,6S)-2-methyl-6-[[4-(1-piperidyl)-1-piperidyl]methyl]morpholin-4-yl]-1,3-benzothiazole-4-carbonitrile], the IC50 is reported as 13 nM. Molecule `C[C@@H]1CN(c2ccc(C#N)c3ncsc23)C[C@H](CN2CCC3(CCCNC3)C2)O1` (stereo partly drawn) [Example 1, 7-[(2S,6R)-2-(2,9-diazaspiro[4.5]decan-2-ylmethyl)-6-methyl-morpholin-4-yl]-1,3-benzothiazole-4-carbonitrile] has an IC50 of 11 nM. `C[C@@H]1CN(c2ccc(C#N)c3ncsc23)C[C@H](CN2CCC(N)CC2)O1` [Example 2, 7-[(2S,6R)-2-[(4-amino-1-piperidyl)methyl]-6-methyl-morpholin-4-yl]-1,3-benzothiazole-4-carbonitrile] gave an IC50 of 26 nM. Work on `C[C@@H]1CN(c2ccc(C#N)c3ncsc23)C[C@H](CN2CCC3(CCNCC3)CC2)O1` [Example 5, 7-[(2S,6R)-2-(3,9-diazaspiro[5.5]undecan-3-ylmethyl)-6-methyl-morpholin-4-yl]-1,3-benzothiazole-4-carbonitrile] yielded an IC50 of 48 nM. Work on `C[C@@H]1CN(c2ccc(C#N)c3ncsc23)C[C@H](CN2CC3(CCCNC3)C2)O1` [Example 4, 7-[(2S,6R)-2-(2,8-diazaspiro[3.5]nonan-2-ylmethyl)-6-methyl-morpholin-4-yl]-1,3-benzothiazole-4-carbonitrile] yielded an IC50 of 12 nM. With `C[C@@H]1CN(c2ccc(C#N)c3ncsc23)C[C@H](C(=O)NCC2CN(C)CCO2)O1` (stereo partly drawn) [Example 12, (2R,6R)-4-(4-cyano-1,3-benzothiazol-7-yl)-6-methyl-N-[(4-methylmorpholin-2-yl)methyl]morpholine-2-carboxamide] the IC50 was 4 nM.
